target: TrkA (Homo sapiens (Human), UniProt P04629); test: TrkA kinase HTRF enzyme inhibition assay; format: biochemical; conditions: TrkA pre-incubated with 200 μM ATP
How it was run: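 TrkA (2-10 nM) pre-activated 20 min with 200 μM ATP in HEPES pH 7.4/Mg/Mn buffer, compound added for 10 min, then biotinylated LCK-analog peptide (125 nM) for 1 h at ambient temperature. HTRF phosphotyrosine detection (665/620 ratio); duplicate half-log dilutions, IC50 from initial-rate inhibition via equation 1.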

Sequence of TrkA (P04629 33-796): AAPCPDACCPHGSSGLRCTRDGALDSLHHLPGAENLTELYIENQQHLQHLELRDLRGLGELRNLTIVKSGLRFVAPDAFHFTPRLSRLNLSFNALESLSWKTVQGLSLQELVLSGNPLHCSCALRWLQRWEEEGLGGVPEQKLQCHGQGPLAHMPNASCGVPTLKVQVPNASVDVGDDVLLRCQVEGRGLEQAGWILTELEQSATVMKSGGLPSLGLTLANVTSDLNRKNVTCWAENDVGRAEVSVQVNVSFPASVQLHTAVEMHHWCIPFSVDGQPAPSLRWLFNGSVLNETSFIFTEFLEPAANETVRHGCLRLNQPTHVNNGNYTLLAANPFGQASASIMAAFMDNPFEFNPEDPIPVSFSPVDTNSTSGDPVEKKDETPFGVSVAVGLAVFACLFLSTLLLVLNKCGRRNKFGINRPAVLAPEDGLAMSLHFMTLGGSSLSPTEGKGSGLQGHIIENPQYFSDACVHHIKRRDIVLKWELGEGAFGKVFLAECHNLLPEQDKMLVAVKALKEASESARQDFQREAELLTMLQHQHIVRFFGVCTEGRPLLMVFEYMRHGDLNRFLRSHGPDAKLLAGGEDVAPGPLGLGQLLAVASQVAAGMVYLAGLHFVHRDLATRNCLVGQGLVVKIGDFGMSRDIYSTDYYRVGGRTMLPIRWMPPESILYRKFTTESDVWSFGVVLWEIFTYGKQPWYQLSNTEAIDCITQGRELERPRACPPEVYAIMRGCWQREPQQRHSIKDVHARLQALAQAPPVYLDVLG

SMILES | IC50 [nM]
CCOc1nc(N2CCN(C(C)=O)CC2)ccc1NC(=O)c1coc2c1C(=O)N([C@@H](C)COC(C)=O)CC2 [Example 100, (2S)-2-[3-{[6-(4-acetylpiperazin-1-yl)-2-ethoxypyridin-3-yl]carbamoyl}-4-oxo-6,7-dihydrofuro[3,2-c]pyridin-5(4H)-yl]propyl acetate] | 23.5
CCOc1nc(N2CCN(C(C)=O)CC2)ccc1NC(=O)c1coc2c1C(=O)N([C@@H](C)CO)CC2 [Example 101, N-[6-(4-acetylpiperazin-1-yl)-2-ethoxypyridin-3-yl]-5-[(2S)-1-hydroxypropan-2-yl]-4-oxo-4,5,6,7-tetrahydrofuro[3,2-c]pyridine-3-carboxamide] | 19.5
CCOc1nc(N2CCN(C(C)=O)CC2)ccc1NC(=O)c1coc2c1C(=O)N(C(C)(C)CO)CC2 [Example 102, N-[6-(4-acetylpiperazin-1-yl)-2-ethoxypyridin-3-yl]-5-(1-hydroxy-2-methylpropan-2-yl)-4-oxo-4,5,6,7-tetrahydrofuro[3,2-c]pyridine-3-carboxamide] | 12.7
CCOc1nc(N2CCN(C(C)=O)CC2)ccc1NC(=O)c1coc2c1C(=O)N(CC(C)(C)OC(C)=O)CC2 [Example 103, 1-[3-{[6-(4-acetylpiperazin-1-yl)-2-ethoxypyridin-3-yl]carbamoyl}-4-oxo-6,7-dihydrofuro[3,2-c]pyridin-5(4H)-yl]-2-methylpropan-2-yl acetate] | 16.9
CC(=O)N1CCN(c2ccc(NC(=O)c3coc4c3C(=O)NCC4)c(O[C@H]3CCOC3)n2)CC1 [Example 105, N-{6-(4-acetylpiperazin-1-yl)-2-[(3S)-tetrahydrofuran-3-yloxy]pyridin-3-yl}-4-oxo-4,5,6,7-tetrahydrofuro[3,2-c]pyridine-3-carboxamide] | 23.5
CC(C)(O)COc1nc(N2CCOCC2)ccc1NC(=O)c1coc2c1C(=O)NCC2 [Example 107, N-[2-(2-hydroxy-2-methylpropoxy)-6-(morpholin-4-yl)pyridin-3-yl]-4-oxo-4,5,6,7-tetrahydrofuro[3,2-c]pyridine-3-carboxamide] | 6.9
CCOc1nc(CC(=O)OC)ccc1NC(=O)c1coc2c1C(=O)NCC2 [Example 108, methyl(6-ethoxy-5-{[(4-oxo-4,5,6,7-tetrahydrofuro[3,2-c]pyridin-3-yl)carbonyl]amino}pyridin-2-yl)acetate] | 226
CCOc1nc(CCO)ccc1NC(=O)c1coc2c1C(=O)NCC2 [Example 109, N-[2-ethoxy-6-(2-hydroxyethyl)pyridin-3-yl]-4-oxo-4,5,6,7-tetrahydrofuro[3,2-c]pyridine-3-carboxamide] | 225
COc1nc(N2CCN(C(C)=O)CC2)ccc1NC(=O)c1coc2c1C(=O)CC1(CCOCC1)C2 [Example 110, N-[6-(4-acetylpiperazin-1-yl)-2-methoxypyridin-3-yl]-4-oxo-2′,3′,4,5′,6′,7-hexahydro-5H-spiro[1-benzofuran-6,4′-pyran]-3-carboxamide] | 39.2
CCOc1nc(N2CCN(C(C)=O)CC2)ccc1NC(=O)c1coc2c1C(=O)NC1(CCCCC1)C2 [Example 112, N-[6-(4-acetylpiperazin-1-yl)-2-ethoxypyridin-3-yl]-4′-oxo-4′,7′-dihydro-5′H-spiro[cyclohexane-1,6′-furo[3,2-c]pyridine]-3′-carboxamide] | 27.3
CCOc1nc(N2CCN(C(C)=O)CC2)ccc1NC(=O)c1coc2c1C(=O)NC1(C2)CN(C(C)=O)C1 [Example 113, 1-acetyl-N-[6-(4-acetylpiperazin-1-yl)-2-ethoxypyridin-3-yl]-4′-oxo-4′,7′-dihydro-5′H-spiro[azetidine-3,6′-furo[3,2-c]pyridine]-3′-carboxamide] | 65.4
CCOc1nc(N2CCN(C(C)=O)CC2)ccc1NC(=O)c1coc2c1C(=O)NC1(COC1)C2 [Example 114, N-[6-(4-acetylpiperazin-1-yl)-2-ethoxypyridin-3-yl]-4-oxo-4,7-dihydro-5H-spiro[furo[3,2-c]pyridine-6,3′-oxetane]-3-carboxamide] | 7.2
CCOc1nc(N2CCN(C(C)=O)CC2)ccc1NC(=O)c1coc2c1C(=O)N[C@@H]([C@@H](C)O)C2 [Example 115, (6R)—N-[6-(4-acetylpiperazin-1-yl)-2-ethoxypyridin-3-yl]-6-[(1R)-1-hydroxyethyl]-4-oxo-4,5,6,7-tetrahydrofuro[3,2-c]pyridine-3-carboxamide] | 8.5
CCOc1nc(N2CCN(C(C)=O)CC2)ccc1NC(=O)c1coc2c1C(=O)N(CC(O)CO)C(C)(C)C2 (centres unmarked) [Example 119, N-[6-(4-acetylpiperazin-1-yl)-2-ethoxypyridin-3-yl]-5-(2,3-dihydroxypropyl)-6,6-dimethyl-4-oxo-4,5,6,7-tetrahydrofuro[3,2-c]pyridine-3-carboxamide] | 6.8
COc1cc(N2CCNCC2)ccc1NC(=O)c1coc2c1C(=O)NC(C)(C)C2 [Example 120, N-[2-methoxy-4-(piperazin-1-yl)phenyl]-6,6-dimethyl-4-oxo-4,5,6,7-tetrahydrofuro[3,2-c]pyridine-3-carboxamide] | 28
COc1nc(N2CCN(C(C)=O)CC2)ccc1NC(=O)c1coc2c1C(=O)NC(C)(C)C2 [Example 122, N-[6-(4-acetylpiperazin-1-yl)-2-methoxypyridin-3-yl]-6,6-dimethyl-4-oxo-4,5,6,7-tetrahydrofuro[3,2-c]pyridine-3-carboxamide] | 14.1
COc1nc(N2CCN(C(=O)N3CCCC3)CC2)ccc1NC(=O)c1coc2c1C(=O)NC(C)(C)C2 [Example 123, N-{2-methoxy-6-[4-(pyrrolidin-1-ylcarbonyl)piperazin-1-yl]pyridin-3-yl}-6,6-dimethyl-4-oxo-4,5,6,7-tetrahydrofuro[3,2-c]pyridine-3-carboxamide] | 11.9
COc1cc(N2CCNCC2)ccc1NC(=O)c1coc2c1C(=O)NC(C)C2 (centres unmarked) [Example 124, N-[2-methoxy-4-(piperazin-1-yl)phenyl]-6-methyl-4-oxo-4,5,6,7-tetrahydrofuro[3,2-c]pyridine-3-carboxamide] | 73.7
COc1cc(N2CCN(S(C)(=O)=O)CC2)ccc1NC(=O)c1coc2c1C(=O)NC(C)(C)C2 [Example 125, N-{2-methoxy-4-[4-(methylsulfonyl)piperazin-1-yl]phenyl}-6,6-dimethyl-4-oxo-4,5,6,7-tetrahydrofuro[3,2-c]pyridine-3-carboxamide] | 35.9

The remaining molecules from weak to strong by IC50, led by results:

IC50 [nM] | SMILES
6.7 | CCOc1nc(N2CCN(C(C)=O)CC2)ccc1NC(=O)c1coc2c1C(=O)N(C[C@H](C)OC(C)=O)CC2 [Example 96, (2S)-1-[3-{[6-(4-acetylpiperazin-1-yl)-2-ethoxypyridin-3-yl]carbamoyl}-4-oxo-6,7-dihydrofuro[3,2-c]pyridin-5(4H)-yl]propan-2-yl acetate]
6 | CCOc1nc(N2CCN(C(C)=O)CC2)ccc1NC(=O)c1coc2c1C(=O)N(CC(C)(C)O)CC2 [Example 104, N-[6-(4-acetylpiperazin-1-yl)-2-ethoxypyridin-3-yl]-5-(2-hydroxy-2-methylpropyl)-4-oxo-4,5,6,7-tetrahydrofuro[3,2-c]pyridine-3-carboxamide]
5.3 | CCOc1nc(N2CCN(C(C)=O)CC2)ccc1NC(=O)c1coc2c1C(=O)NC1(CC1)C2 [Example 117, N-[6-(4-acetylpiperazin-1-yl)-2-ethoxypyridin-3-yl]-4′-oxo-4′,7′-dihydro-5′H-spiro[cyclopropane-1,6′-furo[3,2-c]pyridine]-3′-carboxamide]
4.8 | CCOc1nc(N2CCN(C(C)=O)CC2)ccc1NC(=O)c1coc2c1C(=O)N(C[C@H](C)O)CC2 [Example 97, N-[6-(4-acetylpiperazin-1-yl)-2-ethoxypyridin-3-yl]-5-[(2S)-2-hydroxypropyl]-4-oxo-4,5,6,7-tetrahydrofuro[3,2-c]pyridine-3-carboxamide]
4.3 | CCOc1nc(N2CCN(C(C)=O)CC2)ccc1NC(=O)c1coc2c1C(=O)N(C[C@@H](C)O)CC2 [Example 95, N-[6-(4-acetylpiperazin-1-yl)-2-ethoxypyridin-3-yl]-5-[(2R)-2-hydroxypropyl]-4-oxo-4,5,6,7-tetrahydrofuro[3,2-c]pyridine-3-carboxamide]
3.9 | CCOc1nc(N2CCN(C(C)=O)CC2)ccc1NC(=O)c1coc2c1C(=O)NC1(CCC1)C2 [Example 111, N-[6-(4-acetylpiperazin-1-yl)-2-ethoxypyridin-3-yl]-4′-oxo-4′,7′-dihydro-5′H-spiro[cyclobutane-1,6′-furo[3,2-c]pyridine]-3′-carboxamide]
3.3 | CCOc1nc(N2CCN(C(C)=O)CC2)ccc1NC(=O)c1coc2c1C(=O)N([C@H](C)CO)CC2 [Example 99, N-[6-(4-acetylpiperazin-1-yl)-2-ethoxypyridin-3-yl]-5-[(2R)-1-hydroxypropan-2-yl]-4-oxo-4,5,6,7-tetrahydrofuro[3,2-c]pyridine-3-carboxamide]
3.1 | CCOc1nc(N2CCN(C(C)=O)CC2)ccc1NC(=O)c1coc2c1C(=O)N(CCO)C1(CCC1)C2 [Example 116, N-[6-(4-acetylpiperazin-1-yl)-2-ethoxypyridin-3-yl]-5′-(2-hydroxyethyl)-4′-oxo-4′,7′-dihydro-5′H-spiro[cyclobutane-1,6′-furo[3,2-c]pyridine]-3′-carboxamide]
3 | CCOc1nc(N2CCN(C(=NC#N)NC)CC2)ccc1NC(=O)c1coc2c1C(=O)NC1(CCC1)C2 [Example 118, N-{6-[4-(N′-cyano-N-methylcarbamimidoyl)piperazin-1-yl]-2-ethoxypyridin-3-yl}-4′-oxo-4′,7′-dihydro-5′H-spiro[cyclobutane-1,6′-furo[3,2-c]pyridine]-3′-carboxamide]
1.5 | CCOc1nc(N2CCN(C(C)=O)CC2)ccc1NC(=O)c1coc2c1C(=O)N([C@H](C)COC(C)=O)CC2 [Example 98, (2R)-2-[3-{[6-(4-acetylpiperazin-1-yl)-2-ethoxypyridin-3-yl]carbamoyl}-4-oxo-6,7-dihydrofuro[3,2-c]pyridin-5(4H)-yl]propyl acetate]

— patent US9777020B2, “Furo-3-carboxamide derivatives and methods of use” (AbbVie Inc., priority 2014, dated 2017)
